We go through 27 compounds from patent US20120165310A1, “ETHER DERIVATIVES OF BICYCLIC HETEROARYLS” (NOVARTIS AG, priority 2009, published 2012).

The target of the experiment is T1, IGF-1R (Homo sapiens, UniProt P08069).
T1 construct: expressed in transfected cells; host or cells: Hek293 (Hek293-IGF1R)
T1 sequence (P08069 31-1367): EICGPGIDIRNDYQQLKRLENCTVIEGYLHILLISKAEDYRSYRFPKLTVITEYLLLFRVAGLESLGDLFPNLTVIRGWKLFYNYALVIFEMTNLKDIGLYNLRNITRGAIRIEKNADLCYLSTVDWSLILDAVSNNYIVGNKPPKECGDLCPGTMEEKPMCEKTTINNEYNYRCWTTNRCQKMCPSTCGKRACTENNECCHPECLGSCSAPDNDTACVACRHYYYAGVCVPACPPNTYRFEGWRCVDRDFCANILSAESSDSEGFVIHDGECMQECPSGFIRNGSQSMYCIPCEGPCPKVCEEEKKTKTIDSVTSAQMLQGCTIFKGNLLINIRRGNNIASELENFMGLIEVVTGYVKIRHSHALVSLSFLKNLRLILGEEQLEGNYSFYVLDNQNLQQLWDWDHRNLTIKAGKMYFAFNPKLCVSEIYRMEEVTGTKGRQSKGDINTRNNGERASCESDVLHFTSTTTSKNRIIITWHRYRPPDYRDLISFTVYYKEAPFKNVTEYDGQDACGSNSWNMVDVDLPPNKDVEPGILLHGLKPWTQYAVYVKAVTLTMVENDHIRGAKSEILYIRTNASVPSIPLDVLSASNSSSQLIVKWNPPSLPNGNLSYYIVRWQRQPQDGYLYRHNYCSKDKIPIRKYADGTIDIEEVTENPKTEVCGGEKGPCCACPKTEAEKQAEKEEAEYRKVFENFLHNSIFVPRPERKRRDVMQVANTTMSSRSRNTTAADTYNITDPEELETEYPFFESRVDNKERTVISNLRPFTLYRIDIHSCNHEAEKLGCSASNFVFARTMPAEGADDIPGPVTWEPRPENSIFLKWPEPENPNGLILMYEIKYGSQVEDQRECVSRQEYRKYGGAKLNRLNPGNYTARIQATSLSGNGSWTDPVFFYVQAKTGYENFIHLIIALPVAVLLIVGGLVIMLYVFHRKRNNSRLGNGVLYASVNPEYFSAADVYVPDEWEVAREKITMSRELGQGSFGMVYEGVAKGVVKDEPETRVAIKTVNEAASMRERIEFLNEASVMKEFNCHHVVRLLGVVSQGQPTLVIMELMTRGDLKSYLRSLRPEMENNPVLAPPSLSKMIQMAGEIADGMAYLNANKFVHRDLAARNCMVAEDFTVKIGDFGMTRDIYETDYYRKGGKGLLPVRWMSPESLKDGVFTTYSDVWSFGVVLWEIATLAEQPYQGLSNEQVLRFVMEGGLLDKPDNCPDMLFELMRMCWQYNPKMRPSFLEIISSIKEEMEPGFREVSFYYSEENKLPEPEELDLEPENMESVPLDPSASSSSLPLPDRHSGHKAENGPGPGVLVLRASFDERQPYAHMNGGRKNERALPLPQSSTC
Briefly: Cellular IGF-1R assay: capture ELISA (MSD) of receptor phosphorylation in Hek293 cells. It counts as cell-based. The note with it: Hek293-IGF1R cells, 1 h pre-incubation, 10 min IGF stimulation, pIGF1R capture ELISA. The method, boiled down:
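IC50 from 4-parameter fit of IGF1R phosphorylation, normalised to IGF-stimulated and unstimulated controls, measured by MSD capture ELISA on lysates. Hek293-IGF1R cells in starvation medium got compound 1 h (top 10 μM, 3-fold steps, 0.1% DMSO) before a 10 min pulse of 1.0 ng/μL IGF.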
(In an ELISA, binding on a coated surface is turned into a signal by an enzyme label.)
With `Nc1ncnc2c1c(-c1cccc(OCC34CCC(CC3)O4)c1)cn2[C@H]1CC[C@H](c2cnco2)CC1` [Example 151, 5-(3-(7-oxabicyclo[2.2.1]heptan-1-ylmethoxy)phenyl)-7-((1R,4S)-4-(oxazol-5-yl)cyclohexyl)-7H-pyrrolo[2,3-d]pyrimidin-4-a mine], half-maximal inhibition (IC50) was put at 271 nM. As for `CC(=O)N1CC2CC1CN2[C@H]1C[C@@H](n2cc(-c3cccc(OCC45CCC(CC4)O5)c3)c3c(N)ncnc32)C1` (relative stereo) [Example 173, 1-[5-(cis-3-{4-amino-5-[3-(7-oxa-bicyclo[2.2.1]hept-1-ylmethoxy)-phenyl]-pyrrolo[2,3-d]pyrimidin-7-yl}-cyclobutyl)-2,5-diaza-bicyclo[2.2.1]hept-2-yl]-ethanone], the IC50 – broadly, the point on the concentration scale where inhibition reaches its midpoint – worked out at 182 nM. For the compound `Nc1ncnc2c1c(-c1cccc(OCC34CCC(CC3)O4)c1)cn2C1CC(CN2CC3CC2CS3)C1` [Example 227, 5-[3-(7-Oxa-bicyclo[2.2.1]hept-1-ylmethoxy)-phenyl]-7-{(trans-3-[(1S,4S)-1-(2-thia-5-aza-bicyclo[2.2.1]hept-5-yl)methyl]-cyclobutyl}-7H-pyrrolo[2,3-d]pyrimidin-4-ylamine], half-maximal inhibition (IC50) was put at 74 nM. As for `NC(=O)[C@H]1CCCN1C[C@H]1C[C@@H](n2cc(-c3cccc(OCC45CCC(CC4)O5)c3)c3c(N)ncnc32)C1` [Example 75, (R)-1-(cis-3-{4-amino-5-[3-(7-oxa-bicyclo[2.2.1]hept-1-ylmethoxy)-phenyl]-pyrrolo[2,3-d]pyrimidin-7-yl}-cyclobutylmethyl)-pyrrolidine-2-carboxylic acid amide], the IC50 was 8 nM. In turn, `CN1CCN([C@H]2CC[C@@H](n3cc(-c4cccc(OCC56CCC(CC5)O6)c4)c4c(N)ncnc43)CC2)CC1` [Example 109, 5-(3-(7-oxabicyclo[2.2.1]heptan-1-ylmethoxy)phenyl)-7-((1S,4S)-4-(4-methylpiperazin-1-yl)cyclohexyl)-7H-pyrrolo[2,3-d]pyrimidin-4-amine] returned an IC50 of 101 nM. Against the preceding compound, the IC50 is about 13-fold higher.

Take `Nc1ncnc2c1c(-c1cccc(OCC34CCC(CC3)O4)c1)cn2C1CCC(CN2CCS(=O)(=O)CC2)CC1` (stereo not drawn) [Example 111, 7-[4-(1,1-Dioxo-thiomorpholin-4-ylmethyl)-cyclohexyl]-5-[3-(7-oxa-bicyclo[2.2.1]hept-1-ylmethoxy)-phenyl]-7H-pyrrolo[2,3-d]pyrimidin-4-ylamine]: the IC50 came out at 97 nM. `Nc1ncnc2c1c(-c1cccc(OCC34CCC(CC3)O4)c1)cn2C1CC(O)(CN2CCCC2CO)C1` (single isomer, unassigned) [Example 209]: the IC50 amounted to 60 nM.

Turning to `NC(=O)[C@@H]1CCCN1C[C@H]1C[C@H](n2cc(-c3cccc(OCC45CCC(CC4)O5)c3)c3c(N)ncnc32)C1` [Example 78, (S)-1-(trans-3-{4-amino-5-[3-(7-oxa-bicyclo[2.2.1]hept-1-ylmethoxy)-phenyl]-pyrrolo[2,3-d]pyrimidin-7-yl}cyclobutylmethyl)-pyrrolidine-2-carboxylic acid amide], half-maximal inhibition (IC50) was put at 5 nM. This IC50 is about 12-fold lower than that of the compound before. The same measure for `Nc1ncnc2c1c(-c1cccc(OCC34CCC(CC3)O4)c1)cn2[C@H]1C[C@@H](N2CCS(=O)(=O)CC2)C1` (relative stereo) [Example 230, 7-[cis-3-(1,1-dioxo-thiomorpholin-4-yl)-cyclobutyl]-5-[3-(7-oxa-bicyclo[2.2.1]hept-1-ylmethoxy)-phenyl]-7H-pyrrolo[2,3-d]pyrimidin-4-ylamine]: 17 nM; for `CC1(C)CN(CC2CC(n3cc(-c4cccc(OCC5CCCCO5)c4)c4c(N)ncnc43)C2)[C@H](C(N)=O)CO1` (stereo partly drawn) [Example 98, (3S)-4-((3-(4-amino-5-(3-((tetrahydro-2H-pyran-2-yl)methoxy)phenyl)-7H-pyrrolo[2,3-d]pyrimidin-7-yl)cyclobutyl)methyl)-6,6-dimethylmorpholine-3-carboxamide]: 28 nM; for `Nc1ncnc2c1c(-c1cccc(OCC34CCC(CC3)O4)c1)cn2[C@H]1C[C@@H](CN2C3CCC2CC(O)C3)C1` (stereo partly drawn) [Example 185, 8-(cis-3-{4-Amino-5-[3-(7-oxa-bicyclo[2.2.1]hept-1-ylmethoxy)-phenyl]-pyrrolo[2,3-d]pyrimidin-7-yl}-cyclobutylmethyl)-8-aza-bicyclo[3.2.1]octan-(3-exo)-ol]: 6 nM. `[2H]C1([2H])C([2H])([2H])C2(COc3cccc(-c4cn([C@H]5C[C@@H](CN6CCS(=O)(=O)CC6)C5)c5ncnc(N)c45)c3)OC1([2H])C([2H])([2H])C2([2H])[2H]` [Example 166, d9-7-[cis-3-(1,1-dioxo-1-thiomorpholin-4-ylmethyl)-cyclobutyl]-5-[3-(7-oxa-bicyclo[2.2.1]hept-1-ylmethoxy)-phenyl]-7H-pyrrolo[2,3-d]pyrimidin-4-ylamine] yielded an IC50 of 16 nM. With `Nc1ncnc2c1c(-c1cccc(OCC34CCC(CC3)O4)c1)cn2[C@H]1C[C@@]2(CNC(=O)CO2)C1` [Example 220, (E)-2-{4-amino-5-[3-(7-oxa-bicyclo[2.2.1]hept-1-ylmethoxy)-phenyl]-pyrrolo[2,3-d]pyrimidin-7-yl}-5-oxa-8-aza-spiro[3.5]nonan-7-one], the IC50 amounted to 364 nM.

For `CC1(C)CCC(COc2cccc(-c3cn([C@H]4C[C@@H](CN5CCNC(=O)C5)C4)c4ncnc(N)c34)c2)O1` (stereo partly drawn) [Example 61, 4-(cis-3-{4-amino-5-[3-(5,6-dimethyl-tetrahydro-furan-2-ylmethoxy)-phenyl]-pyrrolo[2,3-d]pyrimidin-7-yl}-cyclobutylmethyl)-piperazin-2-one], the IC50 is 212 nM. On to `Nc1ncnc2c1c(-c1cccc(OCC34CCC(CC3)O4)c1)cn2[C@H]1CC[C@@H](CN2CCSCC2)CC1` [Example 112, 5-(3-(7-oxabicyclo[2.2.1]heptan-1-ylmethoxy)phenyl)-7-((1S,4S)-4-(thiomorpholinomethyl)cyclohexyl)-7H-pyrrolo[2,3-d]pyrimidin-4-amine], for which the IC50 was 36 nM.

`CCOC(=O)c1nccn1C[C@H]1C[C@@H](n2cc(-c3cccc(OCC45CCC(CC4)O5)c3)c3c(N)ncnc32)C1` [Example 180] displayed an IC50 of 57 nM.

`CC1(C(N)=O)CCCN1CC1CC(n2cc(-c3cccc(OCC4CCCCO4)c3)c3c(N)ncnc32)C1` [Example 93, (2S)-1-(((1s,3R)-3-(4-amino-5-(3-((tetrahydro-2H-pyran-2-yl)methoxy)phenyl)-7H-pyrrolo[2,3-d]pyrimidin-7-yl)cyclobutyl)methyl)-2-methylpyrrolidine-2-carboxamide] showed an IC50 of 26 nM.

In turn, `Nc1ncnc2c1c(-c1cccc(OCC34CCC(CC3)O4)c1)cn2[C@H]1CC[C@H](N2CC[C@@H](F)C2)CC1` [Example 125, 5-(3-(7-oxabicyclo[2.2.1]heptan-1-ylmethoxy)phenyl)-7-((1R,4S)-4-((R)-3-fluoropyrrolidin-1-yl)cyclohexyl)-7H-pyrrolo[2,3-d]pyrimidin-4-amine] yielded an IC50 of 419 nM. To `Nc1ncnc2c1c(-c1cccc(OCC34CCC(CC3)O4)c1)cn2C1CC(CN2CC[C@@H](O)C2)C1` (stereo partly drawn) [Example 213, (R)-1-(3-{4-Amino-5-[3-(7-oxa-bicyclo[2.2.1]hept-1-ylmethoxy)-phenyl]-pyrrolo[2,3-d]pyrimidin-7-yl}-cyclobutylmethyl)-pyrrolidin-3-ol] belongs 15 nM.

The compound `Nc1ncnc2c1c(-c1cccc(OCC34CCC(CC3)O4)c1)cn2C1CC(O)(CN2CCC(O)C2)C1` (single isomer, unassigned) [Example 206] registered an IC50 of 288 nM. As to `CN1CCN([C@H]2CC[C@@H](n3cc(-c4cccc(OC[C@H]5CCC(C)(C)O5)c4)c4c(N)ncnc43)CC2)CC1` [Example 121, 5-(3-(((R)-5,5-dimethyltetrahydrofuran-2-yl)methoxy)phenyl)-7-((1S,4S)-4-(4-methylpiperazin-1-yl)cyclohexyl)-7H-pyrrolo[2,3-d]pyrimidin-4-amine], half-maximal inhibition (IC50) required 149 nM.

In turn, `Nc1ncnc2c1c(-c1cccc(OCC34CCC(CC3)O4)c1)cn2C1CC(O)(CN2CCCC2CO)C1` (single isomer, unassigned) [Example 202] had an IC50 of 390 nM.

The compound `CC(=O)NN[C@H]1C[C@@H](n2cc(-c3cccc(OCC45CCC(CC4)O5)c3)c3c(N)ncnc32)C1` (relative stereo) [Example 193, Acetic acid N′-(cis-3-{4-amino-5-[3-(7-oxa-bicyclo[2.2.1]hept-1-ylmethoxy)-phenyl]-pyrrolo[2,3-d]pyrimidin-7-yl}-cyclobutyl)-hydrazide] yielded an IC50 of 112 nM. With `CN1CCN(C(=O)N[C@H]2CC[C@@H](n3cc(-c4cccc(OCC56CCC(CC5)O6)c4)c4c(N)ncnc43)CC2)CC1` [Example 140, N-((1R,4R)-4-(5-(3-(7-oxabicyclo[2.2.1]heptan-1-ylmethoxy)phenyl)-4-amino-7H-pyrrolo[2,3-d]pyrimidin-7-yl)cyclohexyl)-4-methylpiperazine-1-carboxamide], the midpoint of inhibition, the IC50, lay at 473 nM. `CC1(C)CCC(COc2cccc(-c3cn([C@H]4C[C@H](CN5CC(O)C5)C4)c4ncnc(N)c34)c2)O1` (relative stereo) [Example 48, 1-(trans-3-{4-amino-5-[3-(5,5-dimethyl-tetrahydro-furan-2-ylmethoxy)-phenyl]-pyrrolo[2,3-d]pyrimidin-7-yl}-cyclobutylmethyl)-azetidin-3-ol] had an IC50 of 26 nM. Against the preceding compound, the IC50 is about 18-fold lower. Consider `Nc1ncnc2c1c(-c1cccc(OCC34CCC(CC3)O4)c1)cn2C1CC(CN2CC(O)C2)C1` (stereo not drawn) [Example 26, 1-(3-{4-amino-5-[3-(7-oxa-bicyclo[2.2.1]hept-1-ylmethoxy)-phenyl]-pyrrolo[2,3-d]pyrimidin-7-yl}-cyclobutylmethyl)azetidin-3-ol], for which the IC50 was determined as 38 nM. This IC50 and that of the compound before are within 1.5-fold of each other. The same measure for `CC12CCC(COc3cccc(-c4cn([C@H]5C[C@@H](CN6CCS(=O)(=O)CC6)C5)c5ncnc(N)c45)c3)(CC1)O2` (relative stereo) [Example 155, 7-[cis-3-(1,1-dioxo-1-thiomorpholin-4-ylmethyl)-cyclobutyl]-5-[3-(4-methyl-7-oxa-bicyclo[2.2.1]hept-1-ylmethoxy)-phenyl]-7H-pyrrolo[2,3-d]pyrimidin-4-ylamine]: 24 to 54 nM.
